Test results: US11465963B2, “Tetrahydronaphthalene derivatives useful as Nrf2 activators” (BIOGEN MA INC., priority 2017, dated 2022)

Legend:
Assay type in all cases: cell-based
[1] = tested on: Nrf2 target genes, including GCLC, HMOX1, OSGIN1 and NQO1; assay: Gene expression (RT-PCR) in cultured human astrocytes; conditions: human astrocytes treated with increasing concentrations for 20 hours
Experimental: (§1) Human astrocytes from ScienCell (cat #1820) were grown in astrocyte medium per supplier's instructions. Cells cultured for no more than two passages were plated in 96-well plates at 40,000 cells per well for gene transcription experiments and 20,000 cells per well for glutathione and cytoprotection assays.
Primary cultures of human spinal cord astrocytes were treated with compound for 20 hours. The cells were then rinsed in PBS, lysed, and processed for RNA using Ambion Taqman™ Cells-to-CT kit. The resulting cDNA was stored at −20° C. until analysis by real-time polymerase chain reaction (RT-PCR). The cDNA mixture from Cells-to-CT was diluted 5× before loading into PCR. This yields results similar to using 6 ng of purified cDNA. RT-PCR was performed on Life Technologies QuantStudio platform using OpenArray technique according to manufacturer's protocol using the following Taqman primers: […]
The comparative CT method was used to calculate fold changes using ThermoFisher Cloud software for PCR analysis. Samples were compared to vehicle control.

[2] = tested on: human astrocytes; assay: Glutathione assay in cultured human astrocytes; conditions: 20-hr exposure, FIG. 2
Experimental: as §1
Intracellular glutathione was measured after a 20-hr exposure to test compounds by a two-step process. First, cells were lysed and luciferin quantitatively generated from substrate, catalyzed by glutathione-S-transferase in the presence of analyte glutathione. Then luciferin was assayed using stabilized luciferase to produce a luminescent signal proportional to the concentration of glutathione (Promega GSH-Glo, cat #V6912).

[3] = tested on: human astrocytes; assay: Cytoprotection of human astrocytes from sodium arsenite; conditions: compound 20 hrs before 25 μM sodium arsenite, then 22 hrs, FIG. 3
Experimental: Human astrocytes from ScienCell (cat #1820) were grown in astrocyte medium per supplier's instructions. Cells cultured for no more than two passages were plated in 96-well plates at 40,000 cells per well for gene transcription experiments and 20,000 cells per well for glutathione and cytoprotection assays. Astrocytes were treated for 20 hrs as above, then the medium was removed and replaced with serum- and supplement-free growth medium with and without 25 μM sodium arsenite. After 22 hrs., cells were washed with PBS, fixed with 4% paraformaldehyde/4% sucrose in PBS, stained with 4′,6-Diamidino-2-phenylindole dihydrochloride (DAPI) and counted by quantitative fluorescence microscopy.

In the case of `CC1(C)C(=O)C(C#N)=C[C@]2(C)C[C@](O)(c3ccccc3)CC[C@H]12` [Compound 24, (4aS,7S,8aS)-7-hydroxy-4,4,8a-trimethyl-3-oxo-7-phenyl-4a,5,6,8-tetrahydronaphthalene-2-carbonitrile], the “transcription of GCLC” value ([1]; FIG. 1A) was “induces transcription”, the “transcription of HMOX1” value ([1]; FIG. 1B) was “induces transcription” and the “transcription of OSGIN1” value ([1]; FIG. 1C) was “induces transcription”. For the same compound, the “transcription of NQO1” value ([1]; FIG. 1D) was “induces transcription”, the intracellular glutathione [2] was “increases” and the “protection from oxidative stress-induced cell death” value [3] was “protects”.
